Experimental data from patent US20180353460A1, “METHODS OF TREATING UROLOGICAL DISORDERS USING SARMs” (priority 2014, published 2018).
Several values for one entry are separate records, joined by “and”; a condition that tells them apart may be missing. Identical values can stand only once.

How the values were obtained:
[1] = system: levator ani muscle; assay: Earlier male rat model with castrate levels of serum testosterone; format: in vivo
Source text: (§1) Extensive clinical data related to the use of Compound IX are described below; however, there are both preclinical and clinical data supporting the specific investigation of Compound IX for the treatment of SUI. Among the preclinical findings are that Compound IX has androgenic and anabolic activity in male and female rat models. […] These studies together provide an approximation of the expected effect of Compound IX, since currently there are no data in female models regarding levator ani hypertrophy or stress urinary incontinence. […] Based upon these preclinical and clinical analyses, a significant growth/bulking of the levator ani in females with SUI was anticipated, which may also result in improvements in associated symptoms, and are therefore the focus of the study outlined herein.

[2] = system: postmenopausal women with SUI; assay: Proof of concept clinical study: 24 hour pad weight test; format: in vivo, human; details: for Mean Pad Weights % Reduction: week 12
Source text: Secondary Objectives: • To describe the effect of 12 weeks of treatment of Compound IX on the number of voids/day as assessed by the 3 days voiding diary. […] See Tables 2 (individual subject data) and Tables 4-6 (mean pad weight data for sites 1, 2, and 3, respectively), and FIG. 17 for mean and median reductions in pad weights from baseline to week 12 (across all sites). • To describe the effect of 12 weeks of treatment of Compound IX on SUI as assessed by the Urethral Pressure Profile (UPP). The UPP assessment was removed from the protocol because it is invasive and not standard of care. […] See summary data for all subjects across the 3 sites reported in Table 7 and FIGS. 13A and 13B. • Described is the effect of 12 weeks of treatment of Compound IX on subject reported impression of stress urinary incontinence severity as assessed by the Patient Global Impression of Severity Scale (PGI-S). See summary data for all subjects across the 3 sites reported in FIG. 12A. • Described is the effect of 12 weeks of treatment of Compound IX on subject reported impression of improvement as assessed by the Patient Global Impression of Improvement Scale (PGI-I). See summary data for all subjects across the 3 sites reported in FIG. 12B. • Described is the effect of 12 weeks of treatment of Compound IX on subject reported urogenital distress as assessed by the Urinary Distress Inventory Questionnaire (UDI-6). See summary data for all subjects across of 3 sites reported in Table 7 and FIG. 12C. • Described is the effect of 12 weeks of treatment of Compound IX on subject reported impact of urinary incontinence on daily life as assessed by the Incontinence Impact Questionnaire (IIQ-7). See summary data for all subjects across the 3 sites reported in Table 7 and FIG. 12D. • Described is the effect of 12 weeks of treatment of Compound IX on subject reported sexual function as indicated on the completion of the Female Sexual Function Index Questionnaire (FSFI). See summary data for all subjects across the 3 sites reported in Table 7 and FIG. 15. • Described is the effect of 12 weeks of treatment of Compound IX on pelvic floor muscles as measured by MRI. See FIG. 11 wherein the pelvic MRI for one representative subject on trial is reported at baseline and at 12 weeks, FIG. 16 wherein the pelvic MRI's for three representative subjects on trial are reported at baseline and at 12 weeks, and Example 19 and Table 13 which provide individual measurements of levator ani thickness, inner and outer diameter of the urethra, and endometrial thickness, and mean changes in the same from baseline to week 12.
Reported herein are data for the first 18 patients at 12 weeks for the secondary endpoints of 24 hour pad weight test (Tables 2 and 4-6, and FIG. 17) and change in levator ani muscle, urethra, and endometrium for a selected subjects from Baseline to Week 12 as measured by quantitative MRI (FIGS. 11 and 16, Table 13 and Example 19). Data collection/analysis for these and additional secondary endpoints such as frequency of daily voids, urine volume per void, and bladder stress test is still ongoing.
Overall, the median pad weight decreased by 78%, from 31.07 grams at baseline to 6.97 grams at week 12; whereas mean pad weights decreased by 71% from 74.26 grams at baseline to 21.4 grams at week 12.

[3] = system: male and female humans; assay: Phase 3 studies G300504 and G300505: lean body mass; format: in vivo, human; details: 3 mg daily, two phase 3 studies
Source text: as §1

Compound: C[C@](O)(COc1ccc(C#N)cc1)C(=O)Nc1ccc(C#N)c(C(F)(F)F)c1 [Compound IX, (S)—N-(4-Cyano-3-(trifluoromethyl)phenyl)-3-(4-cyanophenoxy)-2-hydroxy-2-methylpropanamide]
- hypertrophy of the levator ani muscle [1]: approximately 120 % of an intact male
- Mean Pad Weights % Reduction ([2]; Site 1 (n = 10)): 77%
- Mean Pad Weights % Reduction ([2]; Site 2 (n = 5)): 66%
- Mean Pad Weights % Reduction ([2]; Site 3 (n = 2)): 74%
- decrease of mean pad weight at week 12 ([2]; all sites): 71% and 78%
- decrease of median pad weight at week 12 ([2]; all sites): 78% and 71%
- median pad weight at week 12 ([2]; baseline 31.07 grams): 6.97 grams
- mean pad weight at week 12 ([2]; baseline 74.26 grams): 21.4 grams
- Pad Weights at Week 12 ([2]; individual patients, 3 mg/day p.o., 24 hour pad weight): 7.31 grams and 7.74 grams and 4.54 grams and 26.93 grams and 3.58 grams and −2.3 grams and 204.4 grams and 14.3 grams and 10.1 grams and 29 grams and 6.9 grams and 5.63 grams and 3.9 grams and 6.13 grams and 7.04 grams and 37.27 grams and 6.48 grams and 6.71 grams
- % Reduction in pad weight (Week 12) ([2]; individual patients, week 12 vs baseline): 88% and 55% and 52% and 45% and 98% (2×) and “126%” and 51% and 82% and 75% and 81% and 91% (2×) and 59% and 80% and 27%
- increase in lean body mass [3]: approximately 1.7%
